For 36 compounds, IC50 results are on record in patent US20240124431A1, “2,3-DIHYDRO-4H-BENZO[B][1,4]OXAZIN-4-YL)(5-(PHENYL)-PYRIDIN-3-YL)METHANONE DERIVATIVES AND SIMILAR COMPOUNDS AS CYP11A1 INHIBITORS FOR THE TREATMENT OF PROSTATE CANCER” (ORION CORPORATION, priority 2020, published 2024).

For the test, the target named is T1, CYP11A1 (Homo sapiens, UniProt P05108).
T1 construct: endogenous in cells; host or cells: NCI-H295R
T1 sequence (P05108 40-521): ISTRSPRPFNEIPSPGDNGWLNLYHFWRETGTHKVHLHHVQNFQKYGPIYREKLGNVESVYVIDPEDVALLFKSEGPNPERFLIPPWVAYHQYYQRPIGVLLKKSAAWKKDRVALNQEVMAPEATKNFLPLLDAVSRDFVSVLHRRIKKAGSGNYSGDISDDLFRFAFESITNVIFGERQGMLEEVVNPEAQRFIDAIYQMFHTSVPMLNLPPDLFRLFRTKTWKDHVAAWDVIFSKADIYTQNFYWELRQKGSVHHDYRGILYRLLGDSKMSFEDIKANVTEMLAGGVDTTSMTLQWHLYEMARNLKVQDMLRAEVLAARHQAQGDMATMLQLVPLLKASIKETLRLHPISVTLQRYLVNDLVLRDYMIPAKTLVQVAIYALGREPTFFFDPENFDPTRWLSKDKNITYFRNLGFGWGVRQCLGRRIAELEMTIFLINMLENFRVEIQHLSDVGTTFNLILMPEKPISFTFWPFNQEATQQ
Briefly: CYP11A1 inhibition: pregnenolone biosynthesis measured by ELISA in NCI-H295R cells. The format is cell-based. Conditions: NCI-H295R cells treated for 24 hours, 10 concentrations in duplicates, read-out: IC50 on CYP11A1 inhibition (Group). As to the method: The ability of the test compounds to inhibit pregnenolone biosynthesis was measured by enzyme-linked immunosorbent assay (ELISA) detecting pregnenolone (Abnova Pregnenolone ELISA Kit, KA1912). […] To determine the half maximal inhibitory concentration (IC50) of the test compounds on CYP11A1 inhibition, the cells were treated for 24 hours with increasing concentrations of the test compound. The final DMSO concentration was 0.4%. Medium samples were diluted 1:6 and pregnenolone amounts determined with ELISA. Manufacturer's recommended protocols were used and pregnenolone (Sigma-Aldrich, P9129) standards were prepared in cell culture medium. Absorbance (A450) was measured with Envision plate reader (PerkinElmer). All the test compounds were studied at 10 concentrations in duplicates.
As for `O=C(c1cncc(-c2cccc(OC(F)(F)F)c2)c1)N1CCOc2ccccc21` [Compound 1, (2,3-Dihydro-4H-benzo[b][1,4]oxazin-4-yl)(5-(3-(trifluoromethoxy)phenyl)-pyridin-3-yl)methanone], the IC50 lay in the range of 201 to 2500 nM.
With `O=C(c1cncc(-c2ccc(F)cc2)c1)N1CCOc2cc(F)ccc21` [Compound 2, (7-Fluoro-2,3-dihydro-4H-benzo[b][1,4]oxazin-4-yl)(5-(4-fluorophenyl)pyridin-3-yl)methanone] the figure was under 50 nM; with `Cc1c(C(=O)N2CCOc3ccccc32)cncc1-c1ccccc1` [Compound 3, (2,3-Dihydro-4H-benzo[b][1,4]oxazin-4-yl)(4-methyl-5-phenylpyridin-3-yl)-methanone], 51 to 200 nM.
To `Cc1c(C(=O)N2CCCc3ccccc32)cncc1-c1ccccc1` [Compound 4, (3,4-Dihydroquinolin-1(2H)-yl)(4-methyl-5-phenylpyridin-3-yl)methanone] belongs 51 to 200 nM; to `Cc1c(C(=O)N2CCOc3ccccc32)cncc1-c1ccc(F)cc1` [Compound 5, (2,3-Dihydro-4H-benzo[b][1,4]oxazin-4-yl)(5-(4-fluorophenyl)-4-methylpyridin-3-yl)methanone], under 50 nM; to `O=C(c1cc(-c2ccc(F)cc2)cnn1)N1CCOc2ccccc21` [Compound 7, (2,3-Dihydro-4H-benzo[b][1,4]oxazin-4-yl)(5-(4-fluorophenyl)pyridazin-3-yl)-methanone], 201 to 2500 nM.
To `O=C(c1cncc(-c2ccc3ncoc3c2)n1)N1CCOc2ccccc21` [Compound 8, (6-(Benzo[d]oxazol-6-yl)pyrazin-2-yl)(2,3-dihydro-4H-benzo[b][1,4]oxazin-4-yl)methanone] belongs under 50 nM; to `O=C(c1cncc(-c2cccc(OC(F)(F)F)c2)n1)N1CCOc2ccccc21` [Compound 9, (2,3-Dihydro-4H-benzo[b][1,4]oxazin-4-yl)(6-(3-(trifluoromethoxy)phenyl)-pyrazin-2-yl)methanone], 51 to 200 nM.
As to `O=C(c1cncc(-c2ccccc2)c1)N1CCOc2ccccc21` [Compound 10, (2,3-Dihydro-4H-benzo[b][1,4]oxazin-4-yl)(5-phenylpyridin-3-yl)methanone], the IC50 is under 50 nM.
With `O=C(c1cncc(-c2ccc3c(c2)OCC3)n1)N1CCCc2ccccc21` [Compound 12, (6-(2,3-Dihydrobenzofuran-6-yl)pyrazin-2-yl)(3,4-dihydroquinolin-1(2H)-yl)-methanone] the figure was under 50 nM; with `O=C(c1cncc(-c2ccc3c(c2)OCC3)n1)N1CCOc2ccccc21` [Compound 13, (2,3-Dihydro-4H-benzo[b][1,4]oxazin-4-yl)(6-(2,3-dihydrobenzofuran-6-yl)pyrazin-2-yl)methanone], under 50 nM; with `COc1ccc(-c2cncc(C(=O)N3CCCc4ccccc43)n2)cc1` [Compound 14, (3,4-Dihydroquinolin-1(2H)-yl)(6-(4-methoxyphenyl)pyrazin-2-yl)methanone], under 50 nM.
To `O=C(c1cncc(-c2ccccc2)n1)N1CCCc2ccccc21` [Compound 15, (3,4-Dihydroquinolin-1(2H)-yl)(6-phenylpyrazin-2-yl)methanone] belongs under 50 nM; to `O=C(c1cncc(-c2ccc(F)cc2)c1)N1CCCc2ccccc21` [Compound 16, (3,4-Dihydroquinolin-1(2H)-yl)(5-(4-fluorophenyl)pyridin-3-yl)methanone], under 50 nM.
With `COc1ccc(-c2cncc(C(=O)N3CCCc4ccccc43)c2)cc1` [Compound 18, (3,4-Dihydroquinolin-1(2H)-yl)(5-(4-methoxyphenyl)pyridin-3-yl)methanone] the figure was under 50 nM; with `O=C(c1cncc(-c2ccc(F)c(F)c2)c1)N1CCOc2ccccc21` [Compound 19, (5-(3,4-Difluorophenyl)pyridin-3-yl)(2,3-dihydro-4H-benzo[b][1,4]oxazin-4-yl)-methanone], under 50 nM; with `O=C(c1cncc(-c2ccc(F)cc2)n1)N1CCOc2ccccc21` [Compound 20, (2,3-Dihydro-4H-benzo[b][1,4]oxazin-4-yl)(6-(4-fluorophenyl)pyrazin-2-yl)-methanone], under 50 nM.
Take `CN1CCN(C(=O)c2cncc(-c3ccc(F)cc3)n2)c2ccccc21` [Compound 21, (6-(4-Fluorophenyl)pyrazin-2-yl)(4-methyl-3,4-dihydroquinoxalin-1(2H)-yl)-methanone]: the IC50 was under 50 nM.
With `CC1CCc2ccccc2N1C(=O)c1cncc(-c2ccc(F)cc2)n1` (stereo not drawn) [Compound 22, (6-(4-Fluorophenyl)pyrazin-2-yl)(2-methyl-3,4-dihydroquinolin-1(2H)-yl)-methanone], the IC50 is under 50 nM.
`COc1ccc(-c2cncc(C(=O)N3CCOc4ccccc43)c2)cc1` [Compound 23, (2,3-Dihydro-4H-benzo[b][1,4]oxazin-4-yl)(5-(4-methoxyphenyl)pyridin-3-yl)-methanone]: the IC50 is under 50 nM.
On to `O=C(c1cncc(-c2ccc(F)cc2)c1)N1CCOc2ccccc21` [Compound 24, (2,3-Dihydro-4H-benzo[b][1,4]oxazin-4-yl)(5-(4-fluorophenyl)pyridin-3-yl)-methanone], for which the IC50 is under 50 nM.
To `COc1cccc(-c2cncc(C(=O)N3CCCc4ccccc43)n2)c1` [Compound 25, (3,4-Dihydroquinolin-1(2H)-yl)(6-(3-methoxyphenyl)pyrazin-2-yl)methanone] belongs under 50 nM.
To `CC1COc2ccccc2N1C(=O)c1cncc(-c2ccc(F)cc2)n1` (stereo not drawn) [Compound 26, (6-(4-Fluorophenyl)pyrazin-2-yl)(3-methyl-2,3-dihydro-4H-benzo[b][1,4]oxazin-4-yl)methanone] belongs under 50 nM; to `O=C(c1cncc(-c2ccc(F)c(O)c2)c1)N1CCOc2ccccc21` [Compound 27, (2,3-Dihydro-4H-benzo[b][1,4]oxazin-4-yl)(5-(4-fluoro-3-hydroxyphenyl)-pyridin-3-yl)methanone], under 50 nM.
Take `O=C(c1cncc(-c2ccc(F)cc2F)c1)N1CCOc2ccccc21` [Compound 28, (5-(2,4-Difluorophenyl)pyridin-3-yl)(2,3-dihydro-4H-benzo[b][1,4]oxazin-4-yl)-methanone]: the IC50 is under 50 nM.
To `O=C(c1cncc(-c2ccc3c(c2)OCC3)n1)N1CCOC2CCCCC21` (stereo not drawn) [Compound 29, (6-(2,3-Dihydrobenzofuran-6-yl)pyrazin-2-yl)(octahydro-4H-benzo[b][1,4]-oxazin-4-yl)methanone] belongs under 50 nM; to `O=C(c1cnnc(-c2ccc(F)cc2)c1)N1CCCc2ccccc21` [Compound 30, (3,4-Dihydroquinolin-1(2H)-yl)(6-(4-fluorophenyl)pyridazin-4-yl)methanone], under 50 nM; to `CN1CCN(C(=O)c2cncc(-c3ccc(F)cc3)c2)c2ccccc21` [Compound 31, (5-(4-Fluorophenyl)pyridin-3-yl)(4-methyl-3,4-dihydroquinoxalin-1(2H)-yl)-methanone], under 50 nM.
To `O=C(c1cncc(-c2ccc([N+](=O)[O-])cc2)c1)N1CCOc2ccccc21` [Compound 32, (2,3-Dihydro-4H-benzo[b][1,4]oxazin-4-yl)(5-(4-nitrophenyl)pyridin-3-yl)-methanone] belongs under 50 nM.
To `O=C(c1cncc(C2=CCCCC2)c1)N1CCOc2ccccc21` [Compound 33, (5-(Cyclohex-1-en-1-yl)pyridin-3-yl)(2,3-dihydro-4H-benzo[b][1,4]oxazin-4-yl)methanone] belongs under 50 nM; to `COc1ccc(-c2cncc(C(=O)N3CCCc4ncccc43)c2)cc1` [Compound 34, (3,4-Dihydro-1,5-naphthyridin-1(2H)-yl)(5-(4-methoxyphenyl)pyridin-3-yl)-methanone], under 50 nM.
With `CCOC(=O)C1CN(C(=O)c2cncc(-c3ccc(F)cc3)n2)c2ccccc2O1` (stereo not drawn) [Compound 35, Ethyl 4-(6-(4-fluorophenyl)pyrazine-2-carbonyl)-3,4-dihydro-2H-benzo[b][1,4]-oxazine-2-carboxylate], the IC50 was under 50 nM.
With `O=C1CCN(C(=O)c2cncc(-c3ccccc3)c2)c2ccccc21` [Compound 36, 1-(5-Phenylnicotinoyl)-2,3-dihydroquinolin-4(1H)-one] the figure was under 50 nM.
In the case of `O=C(c1cncc(-c2ccccc2)n1)N1CCCc2ncccc21` [Compound 37, (3,4-Dihydro-1,5-naphthyridin-1(2H)-yl)(6-phenylpyrazin-2-yl)methanone], the IC50 is under 50 nM.
With `COc1cccc(-c2cncc(C(=O)N3CCCc4ccccc43)c2)c1` [Compound 38, (3,4-Dihydroquinolin-1(2H)-yl)(5-(3-methoxyphenyl)pyridin-3-yl)methanone] the figure was under 50 nM.
To `O=C(c1cncc(-n2cccc2)c1)N1CCCc2ccccc21` [Compound 39, (5-(1H-Pyrrol-1-yl)pyridin-3-yl)(3,4-dihydroquinolin-1(2H)-yl)methanone] belongs under 50 nM.

In general, IC50 refers to the concentration that gives 50% inhibition.
